Laboratory results published in patent US20200179488A1, “Secretin Receptor Agonists to Treat Diseases or Disorders of Energy Homeostasis” (Technische Universität München, priority 2016, published 2020).

Columns and labels:
[1] = system: UCP1 expression; assay: UCP1 mRNA expression (qRT-PCR) in primary adipocytes from interscapular brown adipose tissue; format: cell-based, Mus musculus; settings: 0.1 μM secretin or 0.5 μM isoproterenol, 6 hours, normalized to TFIIB (FIG. 4B)
Protocol: For culturing primary adipocytes male 129S1/SvImJ mice ([…] or UCP1-KO mice and wildtype littermates) at the age of 5-6 weeks were used for the dissection of inguinal and epidydimal white adipose tissue and interscapular brown adipose tissue depots. The tissue was carefully minced and treated with collagenase for 45 min at 37° C. The homogenate was filtered through a 250 μm nylon mesh and centrifuged at 500 g to collect the stromal vascular fraction (SVF). The SVF cell pellet was rinsed and seeded into XF96 V3-PS cell culture microplate (Seahorse Bioscience). After reaching confluency, induction medium containing 10% fetal bovine serum (FBS), 0.5 mM isobutylmethylxanthine, 125 nM indomethacin, 1 mM dexamethasone, 850 nM insulin and 1 nM T3 was added. […] Respiration was measured on day 7 of differentiation. […] RNA was eluted in 50 μl nuclease-free water and RNA concentration was determined spectrophotometrically (Infinite 200 PRO NanoQuant, Tecan, Männedorf/Switzerland). Reverse transcription into cDNA was performed with 500 ng RNA in a final volume of 10 μl (Quantitect Reverse Transcription Kit, Quiagen, Hilden/Germany). qRT-PCR was conducted on 384 well plates in a total volume of 12.5 μl comprising 6.25 μl SensiMix SYBR No-ROX (Bioline, London/UK), 250 nM forward and reverse primers, and 1 μl template cDNA (LightCycler 480 System, Roche Diagnostics, Rotkreuz/Switzerland). […]

[2] = system: wildtype mice; assay: Indirect calorimetry, heat production after i.p. injection in wildtype mice; format: in vivo, Mus musculus; settings: 0.5 mg/kg i.p., 27° C.
Protocol: (§1) Indirect calorimetric measurements in mice were performed using an open flow respirometry system (Phenomaster, TSE Systems, Bad Homburg/Germany). All animals were kept at room temperature or cold-acclimated at 4° C. for 4 days as indicated in the results section. For the gas exchange measurement (O2 consumption and CO2 production) mice were placed individually in metabolic cages (type I, 3 liter volume) without food and water and transferred to a climate cabinet (TPK 600, Feutron, Greiz/Germany). The air was continuously pulled through the cages at a flow rate of 33 l/h. For gas analysis a subsample was dried in a cooling trap and analyzed for gas exchange. Mice in the cabinet were preconditioned to 30° C. and the basal metabolic rate (BMR) in the post-absorptive state was measured between 8:00 a.m.-12:00 p.m. The O2 consumption and CO2 production of each mouse was analyzed every 5 min over a period of 1 min. […] After injection the O2 consumption and CO2 production rate of each mouse was recorded for 45-60 min with high-resolution recordings at 10 sec intervals. […] Respiratory exchange ratios (RER) and heat production (HP) were calculated from the following formula: (RER=CO2 production/O2 consumption) and (HP[mW]=(4.44+1.43*respiratory exchange ratio)*oxygen consumption [ml/h]).

[3] = system: UCP1 knockout mice; assay: Indirect calorimetry, heat production after i.p. injection in UCP1 knockout mice; format: in vivo, Mus musculus; settings: 0.5 mg/kg i.p., 27° C., 60 minutes, p=0.482 (FIG. 6B, 6C)
Protocol: as §1

[4] = system: fasted mice; assay: Food intake on refeeding of fasted wildtype mice; format: in vivo, Mus musculus; settings: mice fasted 18 h, 5 nmol i.p. before refeeding, p=0.0181 (FIG. 7)
Protocol: (§2) For the measurement of food intake, a feeding-drinking-activity (FDA) device was used (TSE Systems, Bad Homburg/Germany). During the measurement mice were single-housed in type-III cages. Mice were habituated to the new cage environment and received every morning at 10 a.m. a single daily intraperitoneal (i.p.) PBS-injection for four days ahead of the experiment start. The body weight of the mice was measured every day. On day four day of habituation the food was removed from the cages at 5 p.m., and the mice were food deprived over night with ad libitum access to water. On the next morning, mice were i.p. injected with either PBS as control or secretin (rat, Tocris, Art Nr 1919). The latter was given in different doses. Subsequently the mice were refed ad libitum while monitoring food intake during the following 72 hours. […] Food intake was calculated from the decrease in feeder weight. The results were exported into a spreadsheet calculation table (Excel, Microsoft) and analyzed with a software package for statistics and graphics (GraphPad Prism 4.0, GraphPad Software, San Diego, USA).
(§3) Next to thermogenesis, brown fat has been proposed to function in the thermoregulatory control of feeding. […] Just before refeeding, mice were intra-peritoneally injected with 5 nmol secretin solved in PBS, or PBS as the vehicle control, and food intake was monitored for the following three days.

[5] = system: UCP1 knockout mice; assay: Food intake on refeeding of fasted Ucp1 knockout mice; format: in vivo, Mus musculus; settings: fasted 18 h, 5 nmol i.p., 4 hours of refeeding, compared to wildtype (FIG. 8)
Protocol: as §2, §3

Substance: secretin
- UCP1 mRNA expression in brown adipocytes versus PBS [1]: significantly increased the expression of the UCP1 gene
- AUC of heat production versus PBS ([2]; 129/S6 wildtype mice, 45 minutes, basal subtracted, p=0.001 (FIG. 5B)): significant increase in the AUC
- AUC of heat production versus PBS ([2]; wildtype mice of 129/S1-UCP1 knockout strain, 60 minutes, p=0.002 (FIG. 6C)): higher AUC
- heat production and its AUC versus PBS [3]: no difference
- food intake during the first two hours of refeeding versus PBS [4]: significant inhibition of food intake
- refeeding food intake in Ucp1 knockout mice [5]: did not inhibit refeeding
